According to ChEMBL document CHEMBL1140325, “Discovery of high-affinity ligands of sigma1 receptor, ERG2, and emopamil binding protein by pharmacophore modeling and virtual screening” (J Med Chem, 2005):

Experiments:
[1] = biological target: 3-beta-hydroxysteroid-Delta(8),Delta(7)-isomerase (Homo sapiens, UniProt Q15125); test: Affinity for human EMP expressed in ERG2 deficient strain of Saccharomyces cerevisiae using [3H]ifenprodil or (+)-[3H]pentazocine as radioligand
[2] = biological target: C-8 sterol isomerase ERG2 (Saccharomyces cerevisiae S288c, UniProt P32352); test: Affinity for ERG2 of Saccharomyces cerevisiae using [3H]ifenprodil or (+)-[3H]pentazocine radioligand
Chain of C-8 sterol isomerase ERG2 (P32352 whole entry): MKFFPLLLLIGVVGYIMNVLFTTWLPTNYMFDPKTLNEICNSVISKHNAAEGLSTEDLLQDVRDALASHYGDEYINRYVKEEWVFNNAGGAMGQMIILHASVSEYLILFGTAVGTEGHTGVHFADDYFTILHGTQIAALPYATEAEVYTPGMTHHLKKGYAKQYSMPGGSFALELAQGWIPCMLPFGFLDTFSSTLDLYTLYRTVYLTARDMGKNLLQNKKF

Chain of 3-beta-hydroxysteroid-Delta(8),Delta(7)-isomerase (Q15125 whole entry): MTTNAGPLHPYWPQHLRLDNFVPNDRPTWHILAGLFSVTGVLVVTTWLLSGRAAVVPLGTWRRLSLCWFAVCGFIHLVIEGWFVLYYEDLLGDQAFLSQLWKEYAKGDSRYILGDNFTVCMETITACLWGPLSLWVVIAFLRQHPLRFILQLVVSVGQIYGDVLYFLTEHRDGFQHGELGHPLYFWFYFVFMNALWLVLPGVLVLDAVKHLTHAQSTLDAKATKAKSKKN

| Compound | Ki [1] | Ki ([2]; read-out: Ki) | Ki [2] |
| --- | --- | --- | --- |
| CC(C)CCCC(C)CCCC(C)N1CC[C@H]2[C@H](C)[C@@H](O)CC[C@]2(C)C1 (stereo not given in full) | 0.6 nM | 0.4 nM |  |
| CC(C)[C@](C#N)(CCCN(C)CCc1ccccc1)c1ccccc1 | 6 nM | 65 nM |  |
| CCCCCCCOc1ccccc1NC(=O)OC(C)CN(CC)CC (stereo not given) | 51 nM | 2800 nM |  |
| CCN(C/C=C/c1ccc(C2CCCCC2)c(Cl)c1)C1CCCCC1 | 3 nM | 9 nM |  |
| O=C(O)c1ccc(CCN2CCN(C/C=C/c3ccc(Cl)cc3)CC2)cc1 | 34000 nM | 16500 nM |  |
| CC/C(=C(/CC)c1ccc(OCCN(CC)CC)cc1)c1ccc(OCCN(CC)CC)cc1 | 54 nM | 0.7 nM |  |
| CCCN(CCC)CCc1ccc(OC)c(OCCc2ccccc2)c1 | 15 nM |  |  |
| C=CCN1CC[C@@]2(C)c3cc(O)ccc3CC1[C@H]2C | 9300 nM | 4700 nM |  |
| CC(C)=CCN1CC[C@@]2(C)c3cc(O)ccc3CC1[C@H]2C | 500 nM | 1000 nM |  |
| N=C(NCc1ccccc1)Nc1nc(-c2cc3ccccc3[nH]2)cs1 | 8500 nM | 31700 nM |  |
| CN(c1nc2ccccc2s1)C1CCN(CCCCOc2ccccc2)C1 (stereo not given) | 450 nM | 169 nM |  |
| CCN(CC)CCO[C@H]1CC[C@@]2(C)C(=CC[C@@H]3[C@@H]2CC[C@]2(C)C(=O)CC[C@@H]32)C1 | 2 nM | 0.2 nM |  |
| CC1CC[C@]2(NC1)O[C@H]1C[C@H]3[C@@H]4CC[C@H]5C[C@@H](O)CC[C@]5(C)[C@H]4CC[C@]3(C)[C@H]1[C@@H]2C (stereo not given in full) | 583 nM | 387 nM |  |
| N=C(NCCSC(c1ccccc1)c1ccccc1)NCCc1cnc[nH]1 | 39 nM | 170 nM |  |
| CCCCCCCCCCCCCN1C[C@@H](C)O[C@@H](C)C1 | 1 nM | 0.09 nM |  |
| CC1=C2C[C@H]3[C@@H](CC=C4C[C@@H](O)CC[C@@]43C)[C@@H]2CC[C@]12O[C@]1(C)C[C@H](C)CN[C@H]1[C@H]2C | 654 nM | 500 nM |  |
| CC1CC[C@@]2(NC1)O[C@H]1C[C@H]3[C@@H]4CC=C5C[C@@H](O)CC[C@]5(C)[C@H]4CC[C@]3(C)[C@H]1[C@@H]2C (stereo not given in full) | > 100000 nM | 1170 nM |  |
| CCCCN1CCC2(CCCc3ccccc32)CC1 | 1 nM | 5 nM |  |
| CCCN1CCC[C@H](c2cccc(O)c2)C1 | 2200 nM | 1200 nM |  |
| C[C@H]1CCC2[C@@H](C)[C@H]3[C@H](C[C@H]4C5CC=C6C[C@@H](O)CC[C@]6(C)[C@H]5CC[C@]34C)N2C1 (single isomer, unassigned) | 441 nM | > 100000 nM |  |
| C[C@H]([C@@H](O)c1ccc(O)cc1)N1CCC(Cc2ccccc2)CC1 [(S,R)-IFENPRODIL] |  | 1 nM |  |

| Compound | Ki [1] | Ki ([2]; read-out: Ki) | Ki [2] |
| --- | --- | --- | --- |
| COc1cc(OC)c(C(=O)CCCN2CCCC2)c(OC)c1 [BUFLOMEDIL] | 60 nM | 7150 nM |  |
| C[C@]12C[C@H](O)[C@H]3[C@@H](CCC4=CC(=O)CC[C@@]43C)[C@@H]1CC[C@@H]2C(=O)CO [CORTICOSTERONE] | > 100000 nM | > 100000 nM |  |
| Cc1ccccc1NC(=N)Nc1ccccc1C [DITOLYLGUANIDINE] | 6700 nM | 2000 nM |  |
| CCN(CC)CCOc1ccc(/C(=C(/Cl)c2ccccc2)c2ccccc2)cc1 [ENCLOMIPHENE] | 1 nM | 160 nM |  |
| CC(Cc1ccc(C(C)(C)C)cc1)CN1C[C@@H](C)O[C@@H](C)C1 (stereo not given in full) [FENPROPIMORPH] | 30 nM | 0.05 nM |  |
| O=C(CCCN1CCC(O)(c2ccc(Cl)cc2)CC1)c1ccc(F)cc1 [HALOPERIDOL] | 190 nM | 0.5 nM |  |
| CC1=C2C(=O)[C@H]3[C@@H](CC=C4C[C@@H](O)CC[C@@]43C)[C@@H]2CC[C@]12O[C@@H]1C[C@H](C)CN[C@H]1[C@H]2C [JERVINE] | > 100000 nM | 284 nM |  |
| CC(C)[C@@](C#N)(CCCN(C)CCc1ccccc1)c1ccccc1 [LEVEMOPAMIL] | 18 nM | 74 nM |  |
| COc1ccc2c(c1)CCC(c1ccccc1)=C2c1ccc(OCCN2CCCC2)cc1 [NAFOXIDINE] |  | 232 nM |  |
| CN(C/C=C/c1ccccc1)Cc1cccc2ccccc12 [NAFTIFINE] | 1500 nM | 310 nM |  |
| OCCN1CCN(CCCN2c3ccccc3C=Cc3ccccc32)CC1 [OPIPRAMOL] | 13 nM | 17 nM |  |
| CC(=O)[C@H]1CC[C@H]2[C@@H]3CCC4=CC(=O)CC[C@]4(C)[C@H]3CC[C@]12C [PROGESTERONE] | > 100000 nM | 4430 nM |  |
| O=C(c1ccc(OCCN2CCCCC2)cc1)c1c(-c2ccc(O)cc2)sc2cc(O)ccc12 [RALOXIFENE] | 1 nM | 66 nM |  |
| CCCCCCCCCCCCC(C#N)(CCCN(C)CCc1ccccc1)c1ccccc1 (stereo not given) [RONIPAMIL] | 2 nM | 13 nM |  |
| CC/C(=C(\c1ccccc1)c1ccc(OCCN(C)C)cc1)c1ccccc1 [TAMOXIFEN] |  |  | 1500 nM |
| CN(C/C=C/C#CC(C)(C)C)Cc1cccc2ccccc12 [TERBINAFINE] | > 50000 nM | > 50000 nM |  |
| C[C@]12CC[C@H]3[C@@H](CCC4=CC(=O)CC[C@@]43C)[C@@H]1CC[C@@H]2O [TESTOSTERONE] | > 100000 nM | 7760 nM |  |
| CN1CCN(CCCN2c3ccccc3Sc3ccc(C(F)(F)F)cc32)CC1 [TRIFLUOPERAZINE] | 8 nM | 500 nM |  |
| O=C(CCCN1CCC(O)(c2cccc(C(F)(F)F)c2)CC1)c1ccc(F)cc1 [TRIFLUPERIDOL] | 165 nM | 0.15 nM |  |
| CCN(CC)CCOc1ccc(C(O)(Cc2ccc(Cl)cc2)c2ccc(C)cc2)cc1 (stereo not given) [TRIPARANOL] | 11 nM | 2 nM |  |
| CCN(CC)CCOc1ccc(/C(=C(\Cl)c2ccccc2)c2ccccc2)cc1 [ZUCLOMIPHENE] | 2 nM | 2 nM |  |
